Reference: US7166622B2, “Substituted phenylsulfonamide inhibitors of beta amyloid production” (Wyeth, priority 2002, dated 2007)
Read-outs that look alike come from different tables or passages of the source.

Tests used:
beta amyloid production = test: Repressor Release Assay (RRA); format: cell-based; settings: for fold induction at 10 µg/mL / APPI Fold Increase / APPI % of Example #98: Conc 10 μg/ml; for fold induction at 20 µg/mL: Conc 20 μg/ml; for APPI % of Example #98: relative to Example 98
Outline: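 Read-out is luciferase luminescence (RLU) after 36-48 h duplicate compound exposure of transfected CHO-K1 cells. These cells carry transiently introduced APP-lacI and pRSVO-luc DNA. Diluent control was 25 mM Hepes/1% DMSO; toxicity recorded as binary score (1 non-toxic, 0 toxic).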

CHO-K1 cells = test: Toxicity in RRA (loss of luciferase signal); settings: toxicity = loss of signal (<0.75 fold increase)
Protocol: The beta amyloid inhibitory activity of the compounds of the present invention was determined using the Repressor Release Assay (RRA).
“Fold Increase” refers to the amount of luciferase activity (measured in relative light units) over diluent control. “SEM” refers to the standard error of the mean for fold increase.

[1] = luciferase activity over diluent control, read-out: APPI Fold Increase
[2] = luciferase activity (RLU) over diluent control, read-out: APPI Fold Increase
[3] = Conc 20 μg/ml, 1=non-toxic, 0=toxic
[4] = luciferase activity over diluent control

Row | SMILES | fold induction at 10 µg/mL (beta amyloid production; [1]) | (%)APPI Toxicity (CHO-K1 cells; Conc 10 μg/ml) | also measured
1 | CC[C@H](C)[C@H](NS(=O)(=O)c1cccc(Cl)c1)C(O)(CC(C)C)CC(C)C [Example 252, 3-chloro-N-{(1S)-2-hydroxy-2-isobutyl-4-methyl-1-[(1S)-1-methylpropyl]pentyl}benzenesulfonamide] | 1.8 | 1 (1=non-toxic) | –
2 | C=CC(O)[C@@H](NS(=O)(=O)c1ccc(Br)cc1)[C@@H](C)CC (stereo partly drawn) [Example 151, 4-bromo-N-{(1S)-2-hydroxy-1-[(1S)-1-methylpropyl]-3-butenyl}benzenesulfonamide] | 2.9 | 1 (1=non-toxic) | –
3 | CC[C@@H](c1ccco1)[C@@H](CO)NS(=O)(=O)c1ccc(Br)cc1 [Example 85, 4-bromo-N-[(1S,2R)-2-(2-furyl)-1-(hydroxymethyl)butyl]benzenesulfonamide] | – | – | fold induction at 20 µg/mL (beta amyloid production; [2]): 3.4; (%)APPI Toxicity (CHO-K1 cells; [3]): 1 (1=non-toxic)
4 | C=CCCC(O)(CCC=C)[C@@H](NS(=O)(=O)c1ccc(Cl)cc1)[C@@H](C)CC [Example 233, N-{(1S)-2-(3-butenyl)-2-hydroxy-1-[(1S)-1-methylpropyl]-5-hexenyl}-4-chlorobenzenesulfonamide] | 6.67 | 1 (1=non-toxic) | –
5 | C=CCCC(O)[C@@H](NS(=O)(=O)c1ccc(F)cc1)[C@@H](C)CC (stereo partly drawn) [Example 141, 4-fluoro-N-{(1S)-2-hydroxy-1-[(1S)-1-methylpropyl]-5-hexenyl}benzenesulfonamide] | 1.79 | 1 (1=non-toxic) | –
6 | CC[C@H](C)[C@H](NS(=O)(=O)c1ccc(Cl)cc1)C(C)O (stereo partly drawn) [Example 165, 4-Chloro-N-[(1S,2S)-1-(hydroxyethyl)-2-methylbutyl]benzenesulfonamide] | 2.05 | 1 (1=non-toxic) | –
7 | CC[C@H](C)[C@H](NS(=O)(=O)c1cccc(Cl)c1)C(O)c1ccc(SC)cc1 (stereo partly drawn) [Example 201, 3-chloro-N-((1S,2S)-1-{hydroxy[4-(methylsulfanyl)phenyl]methyl}-2-methylbutyl)benzenesulfonamide] | 2.45 | 1 (1=non-toxic) | –
8 | CC[C@H](C)[C@@H](CO)NS(=O)(=O)c1ccccc1Br [Example 1, 2-Bromo-N-[(1S,2S)-1-(hydroxymethyl)-2-methylbutyl]benzenesulfonamide] | – | – | fold induction at 20 µg/mL (beta amyloid production; [1]): 1.6; (%)APPI Toxicity (CHO-K1 cells; Conc 20 μg/ml): 1 (1=non-toxic)
9 | CCCCCC(O)(CCCCC)[C@@H](NS(=O)(=O)c1ccccc1F)[C@@H](C)CC [Example 262, 2-fluoro-N-{(1S)-2-hydroxy-1-[(1S)-1-methylpropyl]-2-pentylheptyl}benzenesulfonamide] | 2.2 | 1 (1=non-toxic) | –
10 | CC[C@H](C)[C@H](NS(=O)(=O)c1ccc(Br)cc1)C(O)(c1ccccc1)c1ccccc1 [Example 215, 4-bromo-N-{(1S,2S)-1-[hydroxy(diphenyl)methyl]-2-methylbutyl}benzenesulfonamide] | 1.65 | 1 (1=non-toxic) | –
11 | O=S(=O)(NC1(CO)CCCCC1)c1ccc(Cl)cc1 [Example 123, 4-chloro-N-[1-(hydroxymethyl)cyclohexyl]benzenesulfonamide] | – | – | fold induction at 20 µg/mL (beta amyloid production; [1]): 4.4; (%)APPI Toxicity (CHO-K1 cells; Conc 20 μg/ml): 1 (1=non-toxic)
12 | CC[C@H](C)[C@@H](CO)N(Cc1ccco1)S(=O)(=O)c1ccc(Cl)cc1 [Example 46, 4-chloro-N-(2-furylmethyl)-N-[(1S,2S)-1-(hydroxymethyl)-2-methylbutyl]benzenesulfonamide] | – | – | fold induction at 20 µg/mL (beta amyloid production; [1]): 1.8; (%)APPI Toxicity (CHO-K1 cells; Conc 20 μg/ml): 1 (1=non-toxic)
13 | CC[C@H](C)[C@H](NS(=O)(=O)c1ccc(Cl)cc1)C(O)CC(C)C (stereo partly drawn) [Example 173, 4-chloro-N-{(1S)-2-hydroxy-4-methyl-1-[(1S)-1-methylpropyl]pentyl}benzenesulfonamide] | 2.56 | 1 (1=non-toxic) | –
14 | CC[C@H](C)[C@H](NS(=O)(=O)c1ccc(F)cc1)C(O)(c1ccc(OC)cc1)c1ccc(OC)cc1 [Example 244, 4-fluoro-N-((1S,2S)-1-{hydroxy[bis(4-methoxyphenyl)]methyl}-2-methylbutyl) benzenesulfonamide] | – | 1 (1=non-toxic) | APPI Fold Increase (beta amyloid production; [4]): 1.51 fold; APPI % of Example #98 (beta amyloid production): 69.29%
15 | CC[C@H](C)[C@H](NS(=O)(=O)c1cccc(Cl)c1)C(O)C(C)(C)C (stereo partly drawn) [Example 191, 3-chloro-N-{(1S)-2-hydroxy-3,3-dimethyl-1-[(1S)-1-methylpropyl]butyl}benzenesulfonamide] | 2.42 | 1 (1=non-toxic) | –
16 | C=CCCC(O)(CCC=C)[C@@H](NS(=O)(=O)c1ccc(F)cc1)[C@@H](C)CC [Example 246, N-{(1S)-2-(3-butenyl)-2-hydroxy-1-[(1S)-1-methylpropyl]-5-hexenyl}-4-fluorobenzenesulfonamide] | 2.42 | 1 (1=non-toxic) | fold induction at 20 µg/mL (beta amyloid production; [1]): 1.9; (%)APPI Toxicity (CHO-K1 cells; Conc 20 μg/ml): 1 (1=non-toxic)
17 | C=CCCC(O)[C@@H](NS(=O)(=O)c1cccc(Cl)c1)[C@@H](C)CC (stereo partly drawn) [Example 200, 3-chloro-N-{(1S)-2-hydroxy-1-[(1S)-1-methylpropyl]-5-hexenyl}benzenesulfonamide] | 1.85 | 1 (1=non-toxic) | –
18 | CC[C@H](C)[C@H](NS(=O)(=O)c1ccc(F)cc1)C(O)c1ccc(OC)cc1 (stereo partly drawn) [Example 139, 4-fluoro-N-{(1S,2S)-1-[hydroxy(4-methoxyphenyl)methyl]-2-methylbutyl}benzenesulfonamide] | 2.12 | 1 (1=non-toxic) | –
19 | CC[C@H](C)[C@H](NS(=O)(=O)c1ccc(Br)cc1)C(O)c1ccc(OC)cc1 (stereo partly drawn) [Example 158, 4-bromo-N-{(11 S,2S)-1-[hydroxy(4-methoxyphenyl)methyl]-2-methylbutyl}benzenesulfonamide] | – | 1 (1=non-toxic) | APPI Fold Increase (beta amyloid production; [4]): 2.28 fold; APPI % of Example #98 (beta amyloid production): 101.49%
20 | CC[C@H](C)[C@H](NS(=O)(=O)c1ccccc1F)C(O)c1ccc(OC)cc1 (stereo partly drawn) [Example 209, 2-fluoro-N-{(1S,2S)-1-[hydroxy(4-methoxyphenyl)methyl]-2-methylbutyl} benzenesulfonamide] | – | 1 (1=non-toxic) | APPI Fold Increase (beta amyloid production; [4]): 1.81 fold; APPI % of Example #98 (beta amyloid production): 88.04%
21 | C=CCC(O)[C@@H](NS(=O)(=O)c1ccc(F)cc1)[C@@H](C)CC (stereo partly drawn) [Example 134, 4-fluoro-N-{(1S)-2-hydroxy-1-[(1S)-1-methylpropyl]-4-pentenyl}benzenesulfonamide] | 3 | 1 (1=non-toxic) | fold induction at 3 µg/mL (beta amyloid production; Conc 3 μg/ml, luciferase activity over diluent control, read-out: APPI Fold Increase): 1.5; (%)APPI Toxicity (CHO-K1 cells; Conc 3 μg/ml): 1 (1=non-toxic)
22 | CC[C@H](C)[C@H](NS(=O)(=O)c1ccc(Cl)cc1)C(O)(CC)CC [Example 229, 4-chloro-N-{(1S)-2-ethyl-2-hydroxy-1-[(1S)-1-methylpropyl]butyl}benzenesulfonamide] | 1.52 | 1 (1=non-toxic) | –
23 | CC(C)[C@@](C)(CO)NS(=O)(=O)c1ccc(Br)cc1 [Example 34, 4-bromo-N-[(1 S)-1-(hydroxymethyl)-1,2-dimethylpropyl]benzenesulfonamide] | – | – | fold induction at 20 µg/mL (beta amyloid production; [1]): 4.2; (%)APPI Toxicity (CHO-K1 cells; Conc 20 μg/ml): 1 (1=non-toxic)
24 | C=CCC(O)(CC=C)[C@@H](NS(=O)(=O)c1cccc(Cl)c1)[C@@H](C)CC [Example 254, N-{(1S)-2-allyl-2-hydroxy-1-[(1S)-1-methylpropyl]-4-pentenyl}-3-chloro benzenesulfonamide] | – | 1 (1=non-toxic) | APPI Fold Increase (beta amyloid production; [4]): 1.93 fold; APPI % of Example #98 (beta amyloid production): 71.92%
25 | CC(C)C[C@@H](c1ccco1)[C@@H](CO)NS(=O)(=O)c1ccc(Br)cc1 [Example 86, 4-bromo-N-[(1S,2R)-2-(2-furyl)-1-(hydroxymethyl)-4-methylpentyl]benzenesulfonamide] | – | – | fold induction at 20 µg/mL (beta amyloid production; [2]): 1.6; (%)APPI Toxicity (CHO-K1 cells; [3]): 1 (1=non-toxic)
26 | CCCCCCC(O)[C@@H](NS(=O)(=O)c1ccccc1F)[C@@H](C)CC (stereo partly drawn) [Example 203, 2-fluoro-N-{(1S)-2-hydroxy-1-[(1S)-1-methylpropyl]octyl}benzenesulfonamide] | 3.47 | 1 (1=non-toxic) | –
27 | C[C@@H](c1ccco1)[C@@H](CO)NS(=O)(=O)c1ccc(Br)cc1 [Example 84, 4-bromo-N-[(1S,2R)-2-(2-furyl)-1-(hydroxymethyl)propyl]benzenesulfonamide] | – | – | fold induction at 20 µg/mL (beta amyloid production; [2]): 3.4; (%)APPI Toxicity (CHO-K1 cells; [3]): 1 (1=non-toxic)
28 | O=S(=O)(NC(CO)(c1ccccc1)C1CCC1)c1ccc(Cl)cc1 (stereo not shown) [Example 125, 4-chloro-N-(1-cyclobutyl-2-hydroxy-1-phenylethyl)benzenesulfonamide] | – | – | fold induction at 20 µg/mL (beta amyloid production; [1]): 1.8; (%)APPI Toxicity (CHO-K1 cells; Conc 20 μg/ml): 1 (1=non-toxic)
